Source: patent US11020366B2, “Locomotor activity and increase in longevity of late infantile neuronal ceriod lipofuscinosis subjects by Gemfibrozil” (Rush University Medical Center, priority 2016, dated 2021)

Legend:
[1] = system: subunit c of mitochondrial ATP synthase (SCMAS); test: Detection of storage materials by immunofluorescence of subunit c in motor cortex; assay type: in vivo, mouse; conditions: Cln2(−/−) mice, oral gem 7.5 mg/kg/day, 8 weeks
Method: (§1) Age- and sex-matched Cln2^(+/+) mice from the same background were used as wild type (WT) controls and Cln2^(−/−) animals were used in different treatment groups. Gem (7.5 mg/kg body wt/day) was dissolved in DMSO followed by dilution in 0.1% methyl cellulose (MeC). Cln2^(−/−) mice were either not fed (Un-untreated group), gavaged with 0.1% MeC (vehicle treated group) or gavaged with gem (gem-treated group) for 8 weeks for biochemical studies. Similar treatment regimen was followed as long as the animals are not considered to be morbid as described above for survival study. Here, 40 mice (20 male and 20 female) were used per group and animals (4 weeks old) were randomly selected for any group.
(§2) After 8 weeks of treatment, mice were sacrificed and their brains fixed, embedded, and processed. […] The samples were mounted and observed under Olympus IX41 fluorescence microscope. […] After acquiring images under 20×objective lens, images were further analyzed as follows. […] Once the area of the image was measured, touch counting program was applied to count number of fluorescent signals using simple mouse click method. […]
It was performed by monitoring subunit c of mitochondrial ATP synthase (SCMAS) by immunofluorescence. […] SCMAS-associated fluorescence intensity was quantified by using the Olympus Microsuite V software. […]

Cln2^(−/−) mice [2] = test: Locomotor activity (Digiscan Monitor open field) in Cln2(−/−) mice; assay type: in vivo, mouse; conditions: oral gem 7.5 mg/kg/day, after 8 weeks of treatment
Method: as §1
Locomotor activities were measured in Cln2^(−/−) mice after 8 weeks of gem treatment using Digiscan Monitor (Omnitech Electronics, Inc., Columbus, Ohio) as described by us (Khasnavis & Pahan 2014, Ghosh et al. 2007, Ghosh et al. 2009). This Digiscan Monitor records basic locomotion parameters, such as horizontal activity, total distance traveled, movement time, rest time, etc. as well as stereotypy, behavior that is directly controlled by striatum. […] DIGISCAN software was used to analyze and store horizontal and vertical activity data, which were monitored automatically by infra-red beams. […]

[3] = after oral administration; cited from earlier work
NeuN-positive neurons = test: Neuronal apoptosis, NeuN/TUNEL double-labeling of brain sections; assay type: in vivo, mouse; conditions: Cln2(−/−) mice, oral gem 7.5 mg/kg/day, 8 weeks
Method: Reagents for TUNEL assay on frozen brain sections were purchased from EMD Millipore (Billerica, Mass.) and experiments were performed according to manufacturer's protocol. Blocking buffer and secondary antibodies for immune blot (IB) (IRDye 700 or IRDye 800—labelled) were purchased from Licor (Lincoln, Nebr.). Secondary antibodies for immunohistochemistry (IHC) (FITC or Cy5—labeled) were purchased from Jackson ImmunoResearch (West Grove, Pa.).
Age- and sex-matched Cln2^(+/+) mice from the same background were used as wild type (WT) controls and Cln2^(−/−) animals were used in different treatment groups. Gem (7.5 mg/kg body wt/day) was dissolved in DMSO followed by dilution in 0.1% methyl cellulose (MeC). Cln2^(−/−) mice were either not fed (Un-untreated group), gavaged with 0.1% MeC (vehicle treated group) or gavaged with gem (gem-treated group) for 8 weeks for biochemical studies. […]
as §2

SOCS3 [4] = test: Western blot of motor cortex and striatum extracts for SOCS3; assay type: in vivo, mouse; conditions: Cln2(−/−) mice, 8 weeks of oral gem; both motor cortex and striatum
Method: as §1
(§3) After 8 weeks of treatment, mice were sacrificed and cortex and striatum regions were isolated, homogenized in RIPA buffer (150 mM sodium chloride, 1.0% NP-40 or Triton X-100, 0.5% sodium deoxycholate, 0.1% SDS (sodium dodecyl sulphate), 50 mM Tris, pH 8.0), supernatant was taken and protein was estimated by BioRad protein assay. Equal amounts of protein from the tissue extract were separated in 12% or 15% Bis-Tris gels and proteins were transferred onto a nitrocellulose membrane (Bio-Rad) using the Thermo-Pierce Fast Semi-Dry Blotter (Corbett et al. 2015, Roy et al. 2015, Roy et al. 2016). […]

IL-1Ra [5] = test: Western blot of motor cortex and striatum extracts for IL-1Ra; assay type: in vivo, mouse; conditions: Cln2(−/−) mice, 8 weeks of oral gem; both motor cortex and striatum
Method: as §1, §3

Cln2^(−/−) mice [6] = test: Survival study of Cln2(−/−) mice treated orally with gem; assay type: in vivo, mouse; conditions: gem 7.5 mg/kg body weight/day via gavage from 4 weeks of age
Source text: Animal maintaining and experiments were in accordance with National Institute of Health guidelines and were approved by the Institutional Animal Care and Use committee (IACUC) of the Rush University of Medical Center, Chicago, Ill. […] However, if any mouse came to the moribund stage, it was decapitated after anesthesia with ketamine/xylazine injectables. Conditions for moribund were as follows: central nervous system disturbance (head tilt, seizures, tremors, circling, spasticity, and paresis); inability to remain upright; evidence of muscle atrophy; chronic diarrhea or constipation; rough coat and distended abdomen; preading area of alopecia caused by disease; coughing, rales, wheezing and nasal discharge; distinct jaundice and/or paleness (anemia); markedly discolored urine, polyuria or anuria; frank bleeding from any orifice; persistent self-induced trauma. Cln2^(+/−) animals were kindly provided by Dr. Peter Lobel (Center for Advanced Biotechnology and Medicine, Robert Wood Johnson Medical School, Piscataway, N.J., USA). These animals were inbred and subsequent generations were screened by RTPCR to further obtain Cln2^(+/+), Cln2^(+/−) and Cln2^(−/−) strains. […]
All values are expressed as means±SEM. […]

phospho-BAD (P-BAD) = test: Immunoblot of brain homogenates for phospho-BAD; assay type: in vivo, mouse; conditions: Cln2(−/−) mice, oral gem 7.5 mg/kg/day, 8 weeks
Method: as §1, §3

[7] = cited from earlier work
IL-1Ra [8] = test: Double-label immunofluorescence of striatal sections for IL-1Ra (GFAP, Iba1); assay type: in vivo, mouse; conditions: Cln2(−/−) mice, 8 weeks of oral gem, in both astrocytes and microglia
Method: as §1
as §2, with “processed. Sections (30 μm) were made from different brain regions (motor cortex and striatum) using a Leica Cryostat and immunofluorescence staining on fresh frozen sections was performed as described (Corbett et al. 2015, Roy et al. 2015, Roy et al. 2016).” for “processed.”

astroglia or microglia = test: Astroglia and microglia in brain sections (GFAP, Iba1 immunofluorescence); assay type: in vivo, mouse; conditions: Cln2(−/−) mice, after gem treatment; motor cortex and striatum
Method: as §1
as §2, with “processed. Sections (30 μm) were made from different brain regions (motor cortex and striatum) using a Leica Cryostat and immunofluorescence staining on fresh frozen sections was performed as described (Corbett et al. 2015, Roy et al. 2015, Roy et al. 2016).” for “processed.”

SOCS3 [9] = test: Double-label immunofluorescence of striatal sections for SOCS3 (GFAP, Iba1); assay type: in vivo, mouse; conditions: Cln2(−/−) mice, 8 weeks of oral gem, seen in astrocytes, microglia and other brain cells
Method: as §1
as §2, with “processed. Sections (30 μm) were made from different brain regions (motor cortex and striatum) using a Leica Cryostat and immunofluorescence staining on fresh frozen sections was performed as described (Corbett et al. 2015, Roy et al. 2015, Roy et al. 2016).” for “processed.”

Cc1ccc(C)c(OCCCC(C)(C)C(=O)O)c1 [gem, 5-(2,5-dimethylphenoxy)-2,2-dimethylpentanoic acid]
SCMAS storage material in the motor cortex [1]: significant decrease in SCMAS | locomotor activities (horizontal activity, movement time, number of movement, total distance, stereotypy counts, rest time) (Cln2^(−/−) mice [2]): significantly improved locomotor activities | entry into the CNS [3]: enters into the CNS | neuronal apoptosis (NeuN+TUNEL+ cells) in the motor cortex (NeuN-positive neurons; motor cortex): strongly inhibited neuronal apoptosis | neuronal apoptosis (NeuN+TUNEL+ cells) in the striatum (NeuN-positive neurons; striatum): reduced neuronal apoptosis | SOCS3 level, Western blot (SOCS3 [4]): increase in SOCS3 | IL-1Ra level, Western blot (IL-1Ra [5]): increase | increase of the lifespan (Cln2^(−/−) mice [6]): more than 2 months | survived until (Cln2^(−/−) mice [6]; untreated all died within 137 days, vehicle within 150 days): 204 days | level of P-BAD in the motor cortex (phospho-BAD (P-BAD); motor cortex): upregulation of P-BAD | level of P-BAD in the striatum (phospho-BAD (P-BAD); striatum): increased the level of P-BAD | tolerability ([7]; human and animal studies): well tolerated | toxicity ([7]; oral drug): fairly nontoxic | IL-1Ra in the striatum, immunofluorescence (IL-1Ra [8]): restoration and/or upregulation of IL-1Ra | number of astroglia or microglia (astroglia or microglia): did not observe any reduction in either astroglia or microglia | SOCS3 in the striatum, immunofluorescence (SOCS3 [9]): marked increase in SOCS3
